Data: BindingDB's records for doi:10.1016/0014-2999(84)90478-3 (Mayo Clinic, 1984)
Structures can show the parent of a compound that is named as a salt.

Assays:
[1] = target: T1, Alpha-1A adrenergic receptor (Homo sapiens, UniProt P35348)
T1 sequence (P35348 whole entry): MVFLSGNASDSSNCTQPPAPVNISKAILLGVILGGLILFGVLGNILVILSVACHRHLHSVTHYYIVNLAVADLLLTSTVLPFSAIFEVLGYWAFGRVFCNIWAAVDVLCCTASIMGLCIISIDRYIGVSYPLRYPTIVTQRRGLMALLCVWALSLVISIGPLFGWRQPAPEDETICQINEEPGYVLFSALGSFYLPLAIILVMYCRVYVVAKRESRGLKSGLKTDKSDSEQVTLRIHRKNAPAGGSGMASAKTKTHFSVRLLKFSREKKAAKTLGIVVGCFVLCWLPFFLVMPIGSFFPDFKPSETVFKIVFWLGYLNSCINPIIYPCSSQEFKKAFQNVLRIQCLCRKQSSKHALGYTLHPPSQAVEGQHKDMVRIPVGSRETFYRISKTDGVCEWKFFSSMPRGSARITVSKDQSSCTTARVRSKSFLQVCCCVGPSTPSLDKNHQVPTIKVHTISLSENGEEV

[2] = target: T2, Alpha-2A adrenergic receptor (Homo sapiens, UniProt P08913)
T2 sequence (P08913 whole entry): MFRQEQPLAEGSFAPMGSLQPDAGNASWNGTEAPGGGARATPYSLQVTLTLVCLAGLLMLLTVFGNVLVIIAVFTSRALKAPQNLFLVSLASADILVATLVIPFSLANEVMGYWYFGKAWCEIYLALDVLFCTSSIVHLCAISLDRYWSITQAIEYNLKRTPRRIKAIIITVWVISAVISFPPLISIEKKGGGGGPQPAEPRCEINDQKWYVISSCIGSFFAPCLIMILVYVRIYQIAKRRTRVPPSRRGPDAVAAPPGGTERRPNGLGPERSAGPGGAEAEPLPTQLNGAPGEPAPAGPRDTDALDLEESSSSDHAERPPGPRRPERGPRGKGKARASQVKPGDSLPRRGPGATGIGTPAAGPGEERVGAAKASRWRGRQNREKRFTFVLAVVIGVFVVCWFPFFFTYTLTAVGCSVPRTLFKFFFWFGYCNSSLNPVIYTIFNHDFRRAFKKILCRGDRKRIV

D(2) dopamine receptor = D(2) dopamine receptor (Homo sapiens, UniProt P14416)
Chain of D(2) dopamine receptor (P14416 whole entry): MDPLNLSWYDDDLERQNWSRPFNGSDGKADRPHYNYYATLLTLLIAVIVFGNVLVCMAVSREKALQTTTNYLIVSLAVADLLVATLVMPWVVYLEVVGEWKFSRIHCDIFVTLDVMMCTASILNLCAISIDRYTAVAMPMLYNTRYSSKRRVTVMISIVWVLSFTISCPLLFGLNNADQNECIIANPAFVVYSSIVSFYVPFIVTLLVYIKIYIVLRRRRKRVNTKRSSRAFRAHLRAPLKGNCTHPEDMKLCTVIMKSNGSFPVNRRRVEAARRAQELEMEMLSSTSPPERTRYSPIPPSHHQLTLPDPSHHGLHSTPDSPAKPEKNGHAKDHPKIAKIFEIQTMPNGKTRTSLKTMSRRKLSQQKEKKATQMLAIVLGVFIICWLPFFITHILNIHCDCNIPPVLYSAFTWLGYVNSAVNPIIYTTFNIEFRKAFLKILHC

## CN1CCN(C2=Nc3ccccc3Oc3ccc(Cl)cc32)CC1 [13-chloro-10-(4-methylpiperazin-1-yl)-2-oxa-9-azatricyclo[9.4.0.0^{3,8}]pentadeca-1(11),3,5,7,9,12,14-heptaene]
[1]
  Ki: 28 nM

## CN(C)CCCN1c2ccccc2Sc2ccccc21
[2]
  Ki: 900 nM
D(2) dopamine receptor
  Ki: 160 nM
[1]
  Ki: 6 nM

## CN1CCN(CC/C=C2/c3ccccc3Sc3ccc(S(=O)(=O)N(C)C)cc32)CC1 [MLS000028463]
[2]
  Ki: 200 nM
D(2) dopamine receptor
  Ki: 0.45 nM
[1]
  Ki: 11 nM

## CC(C)(C)[C@]1(O)CCN2C[C@H]3c4ccccc4CCc4cccc(c43)[C@@H]2C1
[2]
  Ki: 310 nM
[1]
  Ki: 56 nM

## O=C(CCCN1CCC2(CC1)C(=O)NCN2c1ccccc1)c1ccc(F)cc1 [8-[4-(4-fluorophenyl)-4-oxidanylidene-butyl]-1-phenyl-1,3,8-triazaspiro[4.5]decan-4-one]
[2]
  Ki: 660 nM
[1]
  Ki: 1.2 nM

## OCCN1CCN(CCCN2c3ccccc3Sc3ccc(Cl)cc32)CC1 [4-[3-(2-chlorophenothiazin-10-yl)propyl]-1-piperazineethanol]
D(2) dopamine receptor
  Ki: 1.4 nM

## CN(C)CCCN1c2ccccc2Sc2ccc(C(F)(F)F)cc21 [TRIFLUPROMAZINE]
D(2) dopamine receptor
  Ki: 2.8 nM

## CCc1c(C)[nH]c2c1C(=O)C(CN1CCOCC1)CC2 (stereo unspecified) [Moban]
D(2) dopamine receptor
  Ki: 120 nM

## CN1CCN(CCCN2c3ccccc3Sc3ccc(C(F)(F)F)cc32)CC1
D(2) dopamine receptor
  Ki: 2.6 nM

## CN1CCCCC1CCN1c2ccccc2Sc2ccc([S+](C)[O-])cc21 (stereo unspecified)
[2]
  Ki: 1600 nM
D(2) dopamine receptor
  Ki: 19 nM
[1]
  Ki: 2 nM

## CN(C)CC/C=C1\c2ccccc2Sc2ccc(Cl)cc21
D(2) dopamine receptor
  Ki: 8 nM
